SMILES strings stand for the structures.

Holding throughout (experiment): biochemical
Set-up in all cases: DiscoverX KinomeScan competition binding assay across human kinases; per cent of control at 10 and 100 uM

The target in one assay is EGFR(E746-A750del) (Homo sapiens, UniProt P00533, DEL746-750). As to conditions: competition binding, % of control; read-out: Percent Control (100 uM Levosimendan). In outline:
(§1)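 Binding is expressed as %control, normalised between positive and negative control signals. The compound (levosimendan) was tested at 10 μM and 100 μM in the DiscoverX KinomeScan competition binding format against human kinases.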

For a further assay, the target named is MUSK (Homo sapiens, UniProt O15146). The following applies: competition binding, % of control; read-out: Percent Control (100 uM Levosimendan). In outline:
as §1

Another assay deals with INSRR (Homo sapiens, UniProt P14616). The following applies: competition binding, % of control; read-out: Percent Control (100 uM Levosimendan). The procedure, abridged:
as §1

Another assay has as its target PRKCE (Homo sapiens, UniProt Q02156). The following applies: competition binding, % of control; read-out: Percent Control (100 uM Levosimendan). In outline: as §1
The next assay deals with CAMKK1 (Homo sapiens, UniProt Q8N5S9). As to conditions: competition binding, % of control. In outline:
as §1

A further assay deals with STK36 (Homo sapiens, UniProt Q9NRP7). As to conditions: competition binding, % of control. The procedure, abridged: as §1
Chain of STK36 (Q9NRP7 whole entry): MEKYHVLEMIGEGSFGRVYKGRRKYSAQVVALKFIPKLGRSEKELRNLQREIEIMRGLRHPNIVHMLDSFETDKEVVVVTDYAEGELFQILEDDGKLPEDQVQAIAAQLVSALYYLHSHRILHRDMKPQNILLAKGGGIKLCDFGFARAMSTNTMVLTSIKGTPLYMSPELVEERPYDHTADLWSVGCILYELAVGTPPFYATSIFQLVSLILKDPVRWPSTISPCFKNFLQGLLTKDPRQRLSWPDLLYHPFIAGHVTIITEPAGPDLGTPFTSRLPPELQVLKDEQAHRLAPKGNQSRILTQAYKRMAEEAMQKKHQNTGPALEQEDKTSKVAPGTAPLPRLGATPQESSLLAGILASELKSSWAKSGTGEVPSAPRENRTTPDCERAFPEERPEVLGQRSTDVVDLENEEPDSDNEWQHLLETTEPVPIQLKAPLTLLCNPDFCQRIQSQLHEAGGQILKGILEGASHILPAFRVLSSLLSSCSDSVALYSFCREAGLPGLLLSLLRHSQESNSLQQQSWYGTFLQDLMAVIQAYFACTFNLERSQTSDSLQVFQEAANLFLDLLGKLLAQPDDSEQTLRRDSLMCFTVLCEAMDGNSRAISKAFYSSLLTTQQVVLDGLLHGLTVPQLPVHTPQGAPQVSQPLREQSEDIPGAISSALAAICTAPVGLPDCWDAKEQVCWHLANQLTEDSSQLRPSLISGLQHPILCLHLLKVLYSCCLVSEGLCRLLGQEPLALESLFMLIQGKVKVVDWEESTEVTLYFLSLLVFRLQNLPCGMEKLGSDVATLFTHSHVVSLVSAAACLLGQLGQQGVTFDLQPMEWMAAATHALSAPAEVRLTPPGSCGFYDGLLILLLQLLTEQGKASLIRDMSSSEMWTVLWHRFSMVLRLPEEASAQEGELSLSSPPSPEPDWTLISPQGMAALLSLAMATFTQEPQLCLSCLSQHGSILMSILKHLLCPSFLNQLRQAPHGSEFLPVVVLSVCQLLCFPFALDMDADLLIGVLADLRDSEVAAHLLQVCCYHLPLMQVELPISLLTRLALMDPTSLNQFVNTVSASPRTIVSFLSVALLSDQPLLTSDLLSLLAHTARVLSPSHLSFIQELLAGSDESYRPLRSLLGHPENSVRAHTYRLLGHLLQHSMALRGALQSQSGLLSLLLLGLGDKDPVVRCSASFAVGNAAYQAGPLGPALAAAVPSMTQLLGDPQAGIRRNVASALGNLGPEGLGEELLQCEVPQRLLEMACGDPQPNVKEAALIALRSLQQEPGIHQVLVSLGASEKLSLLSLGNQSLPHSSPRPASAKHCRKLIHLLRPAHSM
Another assay has as its target BRSK2 (Homo sapiens, UniProt Q8IWQ3). As to conditions: competition binding, % of control; read-out: Percent Control (100 uM Levosimendan). The procedure, abridged:
as §1

The target of the next assay is MYO3B (Homo sapiens, UniProt Q8WXR4). The following applies: competition binding, % of control; read-out: Percent Control (100 uM Levosimendan). In outline:
as §1

In a further assay the target is PIM3 (Homo sapiens, UniProt Q86V86). The following applies: competition binding, % of control. In outline:
as §1

The target in a further assay is GRK4 (Homo sapiens, UniProt P32298). As to conditions: competition binding, % of control; read-out: Percent Control (100 uM Levosimendan). In outline: as §1
Chain of GRK4 (P32298 whole entry): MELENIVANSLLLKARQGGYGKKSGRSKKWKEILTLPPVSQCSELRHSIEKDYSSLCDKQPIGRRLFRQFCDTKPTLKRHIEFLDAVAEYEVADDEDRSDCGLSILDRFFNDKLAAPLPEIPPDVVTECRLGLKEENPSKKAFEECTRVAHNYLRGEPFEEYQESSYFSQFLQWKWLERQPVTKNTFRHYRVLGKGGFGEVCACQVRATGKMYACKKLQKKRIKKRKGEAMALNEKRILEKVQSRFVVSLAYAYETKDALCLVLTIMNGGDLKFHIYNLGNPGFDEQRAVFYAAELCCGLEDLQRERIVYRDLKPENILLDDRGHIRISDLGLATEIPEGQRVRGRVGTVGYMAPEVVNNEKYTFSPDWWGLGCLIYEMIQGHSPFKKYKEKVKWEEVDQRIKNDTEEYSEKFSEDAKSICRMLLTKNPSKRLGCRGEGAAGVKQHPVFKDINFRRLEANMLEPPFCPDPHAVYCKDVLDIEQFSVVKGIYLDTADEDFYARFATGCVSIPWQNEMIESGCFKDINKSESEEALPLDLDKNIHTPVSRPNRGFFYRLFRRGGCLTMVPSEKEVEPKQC
The target in another assay is T1, ERK4 (Homo sapiens, UniProt P31152).
T1 construct: gene MAPK4
T1 sequence (P31152 whole entry): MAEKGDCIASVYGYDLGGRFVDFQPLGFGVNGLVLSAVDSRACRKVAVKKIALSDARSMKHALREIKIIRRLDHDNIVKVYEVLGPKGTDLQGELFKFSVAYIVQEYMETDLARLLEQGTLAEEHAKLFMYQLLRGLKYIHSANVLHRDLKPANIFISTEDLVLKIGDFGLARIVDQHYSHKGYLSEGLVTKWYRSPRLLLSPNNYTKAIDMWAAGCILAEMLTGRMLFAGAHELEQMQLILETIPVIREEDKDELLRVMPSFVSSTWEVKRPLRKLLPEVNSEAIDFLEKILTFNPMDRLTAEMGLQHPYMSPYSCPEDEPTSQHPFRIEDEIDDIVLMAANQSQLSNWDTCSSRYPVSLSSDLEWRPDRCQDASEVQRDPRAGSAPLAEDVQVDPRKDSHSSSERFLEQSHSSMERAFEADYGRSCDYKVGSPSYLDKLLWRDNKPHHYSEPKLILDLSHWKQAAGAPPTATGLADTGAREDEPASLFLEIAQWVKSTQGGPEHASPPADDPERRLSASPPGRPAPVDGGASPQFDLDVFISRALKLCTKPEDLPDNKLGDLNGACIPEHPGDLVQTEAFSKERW
As to conditions: competition binding, % of control; read-out: Percent Control (100 uM Levosimendan). In outline:
as §1

Another assay has as its target T2, MLCK (Homo sapiens, UniProt Q32MK0).
T2 construct: gene MYLK3
As to conditions: competition binding, % of control; read-out: Percent Control (100 uM Levosimendan). In outline: as §1

The target of another assay is T3, PYK2 (Homo sapiens, UniProt Q14289).
T3 construct: gene PTK2B
As to conditions: competition binding, % of control; read-out: Percent Control (100 uM Levosimendan). The procedure, abridged: as §1

The next assay concerns the target HIPK2 (Homo sapiens, UniProt Q9H2X6). As to conditions: competition binding, % of control; read-out: Percent Control (100 uM Levosimendan). The procedure, abridged: as §1
The next assay addresses CSNK1A1 (Homo sapiens, UniProt P48729). The following applies: competition binding, % of control. In outline:
as §1

The target in a further assay is FGFR2 (Homo sapiens, UniProt P21802). The following applies: competition binding, % of control; read-out: Percent Control (100 uM Levosimendan). In outline:
as §1

The next assay deals with SYK (Homo sapiens, UniProt P43405). The following applies: competition binding, % of control; read-out: Percent Control (100 uM Levosimendan). In outline:
as §1

Another assay concerns the target EGFR(L861Q) (Homo sapiens, UniProt P00533, L861Q). The following applies: competition binding, % of control; read-out: Percent Control (100 uM Levosimendan). In outline: as §1
The target in a further assay is EGFR(L858R,T790M) (Homo sapiens, UniProt P00533, L858R/T790M). As to conditions: competition binding, % of control; read-out: Percent Control (100 uM Levosimendan). In outline:
as §1

Setting [1] is: read-out: Percent Control (10 uM Levosimendan).
The mark [2] stands for this setting: read-out: Percent Control (100 uM Levosimendan).

Chain of CSNK1A1 (P48729 whole entry): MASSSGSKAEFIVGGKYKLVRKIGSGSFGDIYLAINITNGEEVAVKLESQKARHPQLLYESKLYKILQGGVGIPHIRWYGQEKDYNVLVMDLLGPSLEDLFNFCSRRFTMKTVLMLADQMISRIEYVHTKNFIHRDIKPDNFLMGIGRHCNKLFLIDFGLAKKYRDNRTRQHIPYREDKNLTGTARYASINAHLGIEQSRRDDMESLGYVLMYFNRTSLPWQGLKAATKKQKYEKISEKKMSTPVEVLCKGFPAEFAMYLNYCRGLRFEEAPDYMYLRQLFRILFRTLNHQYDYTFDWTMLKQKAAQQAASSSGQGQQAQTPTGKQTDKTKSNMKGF
Chain of CAMKK1 (Q8N5S9 whole entry): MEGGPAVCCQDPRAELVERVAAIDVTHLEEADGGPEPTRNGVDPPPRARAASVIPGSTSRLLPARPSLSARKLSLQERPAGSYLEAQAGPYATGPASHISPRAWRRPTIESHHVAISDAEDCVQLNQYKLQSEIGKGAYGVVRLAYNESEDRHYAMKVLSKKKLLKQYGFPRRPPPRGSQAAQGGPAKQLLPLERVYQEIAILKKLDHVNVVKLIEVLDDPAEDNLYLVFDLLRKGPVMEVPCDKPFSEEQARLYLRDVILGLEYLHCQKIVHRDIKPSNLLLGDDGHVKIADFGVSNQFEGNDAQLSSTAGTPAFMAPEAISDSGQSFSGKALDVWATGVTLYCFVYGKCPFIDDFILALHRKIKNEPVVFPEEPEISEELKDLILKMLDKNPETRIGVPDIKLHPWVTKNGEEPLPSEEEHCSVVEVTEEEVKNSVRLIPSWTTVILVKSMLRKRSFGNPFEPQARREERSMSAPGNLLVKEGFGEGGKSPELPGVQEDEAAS
Chain of EGFR(L861Q) (P00533 whole entry L861Q): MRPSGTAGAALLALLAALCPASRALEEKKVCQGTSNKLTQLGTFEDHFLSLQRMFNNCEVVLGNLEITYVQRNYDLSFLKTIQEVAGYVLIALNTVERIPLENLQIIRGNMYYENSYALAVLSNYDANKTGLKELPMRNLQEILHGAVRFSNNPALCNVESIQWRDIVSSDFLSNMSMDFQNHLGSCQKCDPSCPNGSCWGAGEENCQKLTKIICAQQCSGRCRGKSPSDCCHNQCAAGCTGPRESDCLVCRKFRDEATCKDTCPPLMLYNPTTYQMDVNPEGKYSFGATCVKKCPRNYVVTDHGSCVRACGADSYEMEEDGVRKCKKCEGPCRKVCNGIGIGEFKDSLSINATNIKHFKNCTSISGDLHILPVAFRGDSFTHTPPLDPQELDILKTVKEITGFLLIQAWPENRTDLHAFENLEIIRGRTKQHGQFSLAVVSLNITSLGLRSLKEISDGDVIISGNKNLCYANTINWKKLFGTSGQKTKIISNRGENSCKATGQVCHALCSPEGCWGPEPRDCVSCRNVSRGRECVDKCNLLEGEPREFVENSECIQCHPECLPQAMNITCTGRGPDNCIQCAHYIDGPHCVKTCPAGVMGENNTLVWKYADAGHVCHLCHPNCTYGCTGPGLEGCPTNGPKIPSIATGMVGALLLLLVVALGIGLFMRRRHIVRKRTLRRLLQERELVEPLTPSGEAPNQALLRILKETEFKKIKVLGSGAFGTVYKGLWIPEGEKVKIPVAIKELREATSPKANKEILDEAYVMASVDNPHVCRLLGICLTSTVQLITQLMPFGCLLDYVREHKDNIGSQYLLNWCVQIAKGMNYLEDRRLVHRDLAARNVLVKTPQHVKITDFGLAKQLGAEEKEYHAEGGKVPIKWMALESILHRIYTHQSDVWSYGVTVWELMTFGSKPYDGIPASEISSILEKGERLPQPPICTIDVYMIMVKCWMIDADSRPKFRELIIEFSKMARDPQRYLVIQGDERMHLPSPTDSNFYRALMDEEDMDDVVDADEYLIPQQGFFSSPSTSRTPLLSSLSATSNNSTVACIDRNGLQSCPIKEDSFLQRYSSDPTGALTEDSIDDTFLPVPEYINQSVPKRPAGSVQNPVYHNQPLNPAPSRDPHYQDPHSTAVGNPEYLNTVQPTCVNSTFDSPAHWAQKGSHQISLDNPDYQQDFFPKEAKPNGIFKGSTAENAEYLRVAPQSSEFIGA

As for `C[C@@H]1CC(=O)NN=C1c1ccc(NN=C(C#N)C#N)cc1` [levosimendan], the remaining binding at 100 µM on EGFR(E746-A750del) came out at 63%; at MUSK, 100%; at INSRR it was 96%; at PRKCE, 100%; at CAMKK1 (setting [2]), 51%; at STK36 (setting [2]), 50%. In addition, the remaining binding at 100 µM on BRSK2 came out at 100%; at MYO3B, 100%; on PIM3 (setting [2]), 17%; on GRK4 it was 100%; on ERK4, 100%; at MLCK it was 100%. The remaining binding at 100 µM at PYK2 amounted to 93%; at HIPK2, 69%; at CSNK1A1 (setting [2]), 42%; on FGFR2, 61%; at SYK, 78%; at EGFR(L861Q), 71%. In addition, the remaining binding at 100 µM on EGFR(L858R,T790M) was 82%. The remaining binding at 10 µM on CAMKK1 (setting [1]) was found to be 82%; on STK36 (setting [1]) it was 98%; on PIM3 (setting [1]), 75%; on CSNK1A1 (setting [1]) it was 98%.

These data come from paper PMC6576746, “Rational discovery of dual-indication multi-target PDE/Kinase inhibitor for precision anti-cancer therapy using structural systems pharmacology” (PLoS Computational Biology, 2019).
